Type: in vivo, Male Sprague-Dawley rats
Settings: rats, iv
Protocol: Male Sprague-Dawley rats (225-300 g) allowed free access to food and water were used for in vivo biodistribution studies. Kung, 1984, supra; Kung, 1985, supra. While under ether anesthesia, 0.2 mL of a saline solution containing 1.19a, 1.19b, 1.20a, 1.20b or 1.21 (50-100 μCi) was injected directly into the femoral vein of rats, and the rats were sacrificed by cardiac excision at various time points post-injection. The organs of interest were removed and weighed, and the radioactivity was counted with an automatic gamma counter (Packard 5000). The percentage dose per organ was calculated by a comparison of the tissue counts to suitably diluted aliquots of the injected material. Total activities of blood and muscle were calculated under the assumption that they were 7% and 40% of the total body weight, respectively.
The major criteria for determining the potential usefulness of in vivo dopamine transporter imaging agents are based on an animal biodistribution study. In this case, rats were used as an animal model. After an intravenous injection of the Tc-99m labeled compounds, the values of initial brain uptake (% dose/whole organ) at 2 minutes post intravenous injection are used to measure the ability to penetrate the intact blood-brain barrier. Compounds displaying higher brain uptake are the better agents (minimum requirement >0.1% dose in brain). The second criteria is the specific uptake in the striatum region of the brain, where dopamine transporters are located. The uptake value (% dose/gram) of the striatum (ST) is divided by the background area, cerebellum (CB; essentially devoid of dopamine transporter); the ratio of ST/CB is an indicator for specific uptake (minimum requirement for ST/CB >1.5). Five structurally similar tropane derivatives were examined in this biological study. (Tables 1.1 to 1.4).
Male Sprague-Dawley rats (225-300 g) that were allowed free access to food and water were used for in vivo biodistribution studies. (Kung, 1984, supra; Kung, 1985, supra). While under halothane anesthesia, 0.2 mL of a saline solution containing 3.24 to 3.34 ([…]) was injected directly into the femoral vein of rats, and they were sacrificed by cardiac excision at various time points post-injection. The organs of interest were removed and weighed, and the radioactivity was counted with an automatic gamma counter (Packard 5000). The percentage dose per organ was calculated by a comparison of the tissue counts to suitably diluted aliquots of the injected material. Total activities of blood and muscle were calculated under the assumption that they were 7% and 40% of the total body weight, respectively.

## COC(=O)[C@H]1[C@@H](c2ccc(Cl)cc2)C[C@@H]2CC[C@H]1N2CCC[N+]12CC[S][99Tc-]13(=[O])[S]CC[N]3CC2 (single isomer, unassigned; peak b) [peak B of (2.6a)]
  Blood uptake, 2 min: 3.96 ± 0.70 % dose/organ
  Brain uptake, 2 min: 0.19 ± 0.041 % dose/organ
  Heart uptake, 2 min: 0.70 ± 0.21 % dose/organ
  Kidney uptake, 2 min: 2.03 ± 0.45 % dose/organ
  Liver uptake, 2 min: 19.56 ± 3.21 % dose/organ
  Lung uptake, 2 min: 19.16 ± 2.06 % dose/organ
  Muscle uptake, 2 min: 9.92 ± 1.04 % dose/organ
  Skin uptake, 2 min: 1.25 ± 0.17 % dose/organ
  Spleen uptake, 2 min: 0.42 ± 0.10 % dose/organ
  Blood uptake, 30 min: 1.82 ± 0.43 % dose/organ
  Brain uptake, 30 min: 0.094 ± 0.026 % dose/organ
  Heart uptake, 30 min: 0.24 ± 0.08 % dose/organ
  Kidney uptake, 30 min: 1.24 ± 0.18 % dose/organ
  Liver uptake, 30 min: 28.57 ± 2.94 % dose/organ
  Lung uptake, 30 min: 12.51 ± 1.46 % dose/organ
  Muscle uptake, 30 min: 8.09 ± 1.686 % dose/organ
  Skin uptake, 30 min: 3.25 ± 0.76 % dose/organ
  Spleen uptake, 30 min: 0.67 ± 0.17 % dose/organ

## COC(=O)[C@H]1[C@@H](c2ccc(Cl)cc2)C[C@@H]2CC[C@H]1N2CCC[N+]12CC[S][99Tc-]13(=[O])[S]CC[N]3CC2 (single isomer, unassigned; peak a) [peak A of (2.6a)]
  Blood uptake, 2 min: 2.41 ± 0.33 % dose/organ
  Brain uptake, 2 min: 0.25 ± 0.04 % dose/organ
  Heart uptake, 2 min: 0.79 ± 0.03 % dose/organ
  Kidney uptake, 2 min: 2.97 ± 0.09 % dose/organ
  Liver uptake, 2 min: 14.29 ± 2.56 % dose/organ
  Lung uptake, 2 min: 15.63 ± 2.31 % dose/organ
  Muscle uptake, 2 min: 7.78 ± 0.32 % dose/organ
  Skin uptake, 2 min: 1.59 ± 0.68 % dose/organ
  Spleen uptake, 2 min: 0.42 ± 0.10 % dose/organ
  Blood uptake, 30 min: 1.16 ± 0.06 % dose/organ
  Brain uptake, 30 min: 0.13 ± 0.02 % dose/organ
  Heart uptake, 30 min: 0.22 ± 0.02 % dose/organ
  Kidney uptake, 30 min: 1.25 ± 0.11 % dose/organ
  Liver uptake, 30 min: 20.87 ± 2.23 % dose/organ
  Lung uptake, 30 min: 9.65 ± 1.37 % dose/organ
  Muscle uptake, 30 min: 10.41 ± 1.26 % dose/organ
  Skin uptake, 30 min: 5.69 ± 0.73 % dose/organ
  Spleen uptake, 30 min: 0.42 ± 0.05 % dose/organ

From patent US6241963A, “Dopamine and serotonin transporter ligands and imaging agents” (priority 1996, dated 2001)
